Data: publication doi:10.1101/2024.07.10.602875v1 (biorxiv, 2024)

Experiments:
T. gondii = test: microbe, parasite or virus in culture; design: species or system T. gondii RH-luciferase in HFF; details: Toxoplasma gondii, read-out: Cell viability IC50 (µM)
TgIMPα [1] = molecular target: T1, TgIMPα (Toxoplasma gondii, UniProt A0A125YID0); test: intrinsic tryptophan fluorescence quenching; format: binding
T1 sequence (A0A125YID0 1-545): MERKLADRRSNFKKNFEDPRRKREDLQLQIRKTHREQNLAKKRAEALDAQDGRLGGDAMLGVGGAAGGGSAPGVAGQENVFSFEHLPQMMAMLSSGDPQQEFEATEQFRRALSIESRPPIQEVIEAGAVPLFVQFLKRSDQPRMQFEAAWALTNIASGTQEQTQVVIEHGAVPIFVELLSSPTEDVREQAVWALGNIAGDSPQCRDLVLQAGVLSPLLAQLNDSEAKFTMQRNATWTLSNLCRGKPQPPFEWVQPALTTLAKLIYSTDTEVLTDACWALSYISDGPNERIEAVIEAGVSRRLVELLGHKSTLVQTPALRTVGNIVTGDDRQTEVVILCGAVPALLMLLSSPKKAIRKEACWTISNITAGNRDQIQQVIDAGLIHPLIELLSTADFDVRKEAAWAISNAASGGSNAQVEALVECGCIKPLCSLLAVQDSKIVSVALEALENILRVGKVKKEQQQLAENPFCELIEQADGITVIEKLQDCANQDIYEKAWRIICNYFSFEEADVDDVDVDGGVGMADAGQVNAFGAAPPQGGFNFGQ

TgIMPα [2] = molecular target: T1, TgIMPα; test: AlphaScreen, inhibition of IMPα:NLS interaction; format: binding
PfIMPα = molecular target: T2, PfIMPα (Plasmodium falciparum, UniProt Q8IAW0); test: intrinsic tryptophan fluorescence quenching; format: binding
T2 sequence (Q8IAW0 1-545): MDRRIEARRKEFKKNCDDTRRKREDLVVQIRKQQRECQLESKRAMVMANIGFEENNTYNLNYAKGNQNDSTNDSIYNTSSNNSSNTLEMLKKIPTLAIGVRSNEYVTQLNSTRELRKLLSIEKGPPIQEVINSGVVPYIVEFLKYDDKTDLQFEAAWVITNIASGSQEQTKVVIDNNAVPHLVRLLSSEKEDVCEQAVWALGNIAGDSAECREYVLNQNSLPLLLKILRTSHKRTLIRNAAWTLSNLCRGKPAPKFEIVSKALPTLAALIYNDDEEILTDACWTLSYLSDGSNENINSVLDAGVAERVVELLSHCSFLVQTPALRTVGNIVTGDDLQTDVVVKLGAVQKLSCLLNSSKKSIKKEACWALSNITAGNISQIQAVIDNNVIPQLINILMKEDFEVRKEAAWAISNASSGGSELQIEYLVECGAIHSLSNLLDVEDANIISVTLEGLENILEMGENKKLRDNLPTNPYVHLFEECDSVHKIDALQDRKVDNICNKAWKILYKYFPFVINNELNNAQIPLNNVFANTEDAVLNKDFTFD

SMILES | IC50 (T. gondii) [µM] | IC50 (TgIMPα [1]) [µM] | IC50 (TgIMPα [2]) [µM] | IC50 (PfIMPα) [µM]
Cc1ccc(S(=O)(=O)/C=C/C#N)cc1 [Bay 11-7082] | 1.06 ± 0.07 | 17.5 ± 3.3 | 8.2 ± 1.3 | –
CC(C)(C)c1ccc(S(=O)(=O)/C=C/C#N)cc1 [Bay 11-7085] | – | 27.7 ± 9.4 | – | 19.9 ± 3.7
